Data on 15 compounds can be found in patent publication US8236858B2, “Substituted aryl-indole compounds and their kynurenine/kynuramine-like metabolites as therapeutic agents” (Neurim Pharmaceuticals (1991) Ltd., priority 2006, dated 2012).

By IC50 is commonly meant the concentration needed to halve the response being measured. The low end stands for inhibition by little substance, the high end for a need for much substance.

One experiment addresses T1, GSK3β (Homo sapiens, UniProt P49841).
T1 construct: made in house; host or cells: insect Sf9 cells
Briefly: Evaluation of GSK3β activity: inhibition of purified GSK3β, [γ-32P]ATP / GS-2 peptide filter assay. Type of experiment: biochemical. The following applies: for IC50: purified GSK3β expressed in Sf9 cells, 15 μM ATP, GS-2 peptide substrate, 30 min at 30° C.; for inhibiting activity on GSK3β activity (in words): summary of Table 1. The method, then: Compounds were evaluated for inhibition against purified GSK3β. GSK3β was expressed in and purified from insect Sf9 cells. Compounds (10 μM) were assayed; following a 1/100 dilution of the enzyme in 1 mg/ml BSA, 10 mM DTT, with 5 μl of 40 μM GS-2 peptide as a substrate, in a buffer, in the presence of 15 μM [γ-^32P]ATP (3000 Ci/mmol; 1 mCi/ml) in a final volume of 30 μl. After 30-min incubation at 30° C., 25-μl aliquots of supernatant were spotted onto 2.5×3 cm pieces of Whatman P81 phosphocellulose paper, and, 20 s later, the filters were washed five times (for at least 5 min each time) in a solution of 10 ml of phosphoric acid/liter of water. The wet filters were counted in the presence of 1 ml of scintillation fluid.

A further experiment relates to MPTP-treated mice. Description: Anti-Parkinsonian activity in MPTP-treated mice with a sub threshold dose of L-DOPA (motor activity counts). Type of experiment: in vivo, C57 BL/6 mice. As to conditions: for reversal of the motor deficits of MPTP-treated mice (in words): 3 mg/kg, combined with a sub-threshold (inactive) dose of L-Dopa; for LOCOMOTION / REARING / TOTAL ACTIVITY: MPTP-treated mice (2×40 mg/kg s.c.), compound 3 mg/kg orally + 5 mg/kg L-Dopa s.c., counts with Vehicle (no MPTP) = 100%. How it is done: Animals: six month old male C57 BL/6 mice, weighing 22-25 g were used. Following arrival at the laboratory, the mice were allowed to acclimatize for two weeks in a room with controlled temperature (21±1° C.), and a constant light-dark schedule (12 hr on/12 hr off, lights on between 06.00 and 18.00 hrs). Free access to food and water was maintained throughout. They were housed in groups of 12 animals and tested only during the hours of light (08.00-15.00 hrs). All testing was performed in a normally lighted room.
Behavioural measurements and apparatus: An automated device, consisting of macrolon rodent test cages (40×25×15 cm), each placed within two series of infra-red beams (at two different heights, one low and one high, 2 and 8 cm, respectively, above the surface of the sawdust, 1 cm deep), was used to measure spontaneous and/or drug-induced motor activity of 1-methyl 4-phenyl 1,2,3,6-tetrahydropyridine (MPTP) and control mice. The following parameters were measured: LOCOMOTION was measured by the low grid of infrared beams. Counts were registered only when the mouse in the horizontal plane, ambulating around the test-cage. REARING was registered throughout the time when at least one high level beam was interrupted, i.e. the number of counts registered was proportional to the amount of time spent rearing. TOTAL ACTIVITY was measured by a sensor (a pick-up similar to a gramophone needle, mounted on a lever with a counterweight) with which the test cage was constantly in contact. The sensor registered all types of vibration received from the test cage, such as those produced both by locomotion and rearing as well as shaking, tremors, scratching and grooming.
Behavioral measurements (locomotion, rearing and total activity): Twelve days after MPTP injections (2×40 mg/kg, s.c., 24 hr interval), the mice were administered orally with the different compounds at 3 mg/kg or vehicle (0.1% Tween-80 in 1% methylcellulose) and immediately thereafter placed in the activity test chambers and their motor behaviors were monitored for 60 min. After 60 min, the mice were injected with 5 mg/kg L-Dopa (s.c) and then replaced in the test chamber and activity measurements maintained for an additional 300 min.
Table 2 presents the locomotion, rearing and total activity counts of MPTP-treated and control mice administered either tested substances or vehicle administered with a sub threshold dose of L-Dopa.

The test system of another experiment is NMDA-activated currents. Briefly: Electrophysiological characterisation of NMDA-activated currents in freshly isolated hippocampal neurones (whole-cell patch clamp). The format is cell-based, Wistar rats. The following applies: for % Inhibition Peak Current / % Inhibition Steady State Current: 1 μM substance, 10 μM glycine, 300 μM L-aspartate, holding potential −70 mV, mean of at least 4 cells; for blocking activity on NMDA-activated currents (in words): summary of Table 3, 1 μM. How it is done:
Isolation of hippocampal neurons: Wistar rats (12-14 days) were decapitated without anesthesia and the hippocampus was removed. It was manually cut into slices (0.2-0.4 mm), in a solution containing (mM): 150 NaCl; 5 KCL; 1.25 NaH2PO4; 2 CaCl2; 2 MgCl2; 26 NaHCO3; 20 glucose. Slices were preincubated in this solution for 30 min at room temperature. The enzymatic treatment proceeded in the same solution with lower Ca^2+ concentration (0.5 mm) containing 0.4 mg/ml protease from aspergillus oryzae. The incubation in the enzyme solution proceeded at 32° C. within 10 min. Slices were kept subsequently in enzyme-free solution containing normal Ca^2±concentration and used within 6-8 h for obtaining isolated neurons. Throughout the entire procedure the solutions were continuously saturated with a 95% O2 and 5% CO2 gas mixture to maintain pH of 7.4. For cell dissociation the slice was transferred into the extracellular solution containing (mM): 150 NaCl; 5 KCl; 2 CaCl2; 10 n-2-hydroxyethylpiperazine-n′-2-ethanesulphonic acid (Hepes); pH adjusted with NaOH to 7.4. Single cells were isolated from CA and CA3 zones of hippocampal slices by vibrodissociation method. […] After isolation they were usually suitable for the recording for 1-2 h.
Salines and chemicals: The contents of the extracellular solution was as follows (in mM): 130 NaCl, 5KCl, 2CaCl2, 20 n-2-hydroxyethylpiperazine-n′-2-ethansulfonic acid (Hepes); 0.1 μm TTX, 10 μm glycine, […] 1-aspartate; pH was adjusted with NaOH to 7.4.
The contents of the intracellular solution were as follows (in mM): 110 CsF, 20 Tris-HCl (pH=7.2). L-aspartate and glycine solutions were prepared on the day of experiment.
The tested substances were dissolved in DMSO.
Current recording and data analysis: The drug-containing solutions were applied by the fast “concentration clamp” method using “jumping table” set-up. The currents were recorded with patch clamp technique in the whole-cell configuration. Recording of the currents was performed using EPC-7 L/M patch-clamp amplifier.
NMDA-activated currents: The currents were filtered at 3 kHz (three-pole active Bessel filter) digitally sampled at the rate 6000 μs per point for NMDA activated currents. NMDA-induced transmembrane currents were measured in the presence of 10 μM glycine and 300 μM L-aspartate in the control and test solutions. The currents were recorded at holding potential −70 mV.
Calculations: The inhibition of current at 1 μM of the substance was averaged at least for 4 cells. The effect of substance was measured as the mean ratio I/Io where I was the current under the action of substance and Io was the current in control conditions.

T1 sequence (P49841 whole entry, species assumed): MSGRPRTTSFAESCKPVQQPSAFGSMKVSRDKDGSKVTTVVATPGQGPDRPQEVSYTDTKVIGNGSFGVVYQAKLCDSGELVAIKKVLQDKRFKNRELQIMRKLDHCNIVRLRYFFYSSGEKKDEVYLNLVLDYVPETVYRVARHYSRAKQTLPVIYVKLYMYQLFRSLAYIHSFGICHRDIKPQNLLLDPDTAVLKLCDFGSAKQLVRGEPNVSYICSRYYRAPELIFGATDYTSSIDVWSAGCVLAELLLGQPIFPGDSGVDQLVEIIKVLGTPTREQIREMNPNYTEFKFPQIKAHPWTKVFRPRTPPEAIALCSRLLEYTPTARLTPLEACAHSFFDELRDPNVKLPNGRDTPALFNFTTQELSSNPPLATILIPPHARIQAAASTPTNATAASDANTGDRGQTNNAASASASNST

Turning to `COc1ccc2[nH]cc(CCNc3ccccc3[N+](=O)[O-])c2c1` [N-(2-Nitrophenyl)-5-methoxytryptamine], at GSK3β, half-maximal inhibition (IC50) required 14.1 µM and the “inhibiting activity on GSK3β activity (in words)” value (“inhibiting activity” below) is “significant inhibiting activity”. For the same compound, in the experiment with MPTP-treated mice, the “reversal of the motor deficits of MPTP-treated mice (in words)” value (shortened to “reversal”) is “significantly reversed the motor deficits”, the LOCOMOTION worked out at 44%, the REARING was 90% and the “TOTAL ACTIVITY” value was found to be 73%. Further, in the experiment with NMDA-activated currents, the “% Inhibition Peak Current” value came to 78%, the “% Inhibition Steady State Current” value came out at 77.3% and the “blocking activity on NMDA-activated currents (in words)” value (shortened to “blocking activity”) is given as “significant blocking activity”.

Regarding `COc1ccc2[nH]cc(CCNc3ccc(Br)cc3[N+](=O)[O-])c2c1` [N-(4-bromo-2-nitrophenyl)-5-methoxytryptamine], in the experiment on MPTP-treated mice, the LOCOMOTION is on record as 16%, the REARING is recorded as 24% and the “TOTAL ACTIVITY” value is reported as 46%. For the same compound, in the experiment on NMDA-activated currents, the “% Inhibition Peak Current” value turned out to be 104.2%, the “% Inhibition Steady State Current” value is listed as 78.18% and the “blocking activity” value was “significant blocking activity”.

For the compound `N#Cc1ccc(NCCc2c[nH]c3ccccc23)cc1C#N` [N-(3,4-dicyanophenyl)-tryptamine], on GSK3β, the IC50 came to 14.8 µM and the “inhibiting activity” value is “significant inhibiting activity”. In addition, in the experiment with MPTP-treated mice, the LOCOMOTION stood at 18%, the REARING came out at 25% and the “TOTAL ACTIVITY” value was 47%. Moreover, in the experiment with NMDA-activated currents, the “% Inhibition Peak Current” value is on record as 93.4%, the “% Inhibition Steady State Current” value is recorded as 66.4% and the “blocking activity” value is “significant blocking activity”.

As for `Nc1ccccc1C(=O)CCNc1ccccc1[N+](=O)[O-]` [2-(2-aminobenzoyl)-N-2-nitrophenylethylamine], at GSK3β, the IC50 is 18.5 µM. In the experiment with MPTP-treated mice, the LOCOMOTION is recorded as 17.6%, the REARING is 25% and the “TOTAL ACTIVITY” value stood at 45%.

Take `N#Cc1ccc(NCCC(=O)c2ccccc2N)c([N+](=O)[O-])c1` [2-(2-aminobenzoyl)-N-2-nitro-4-cyano-phenylethylamine]: on GSK3β, 29.3 µM corresponded to half-maximal inhibition (IC50) and the “inhibiting activity” value is “significant inhibiting activity”. Also, in the experiment with MPTP-treated mice, the LOCOMOTION came to 17%, the REARING came out at 29% and the “TOTAL ACTIVITY” value came to 46%. Further, in the experiment on NMDA-activated currents, the “% Inhibition Peak Current” value was determined as 85.95% and the “% Inhibition Steady State Current” value was 87.24%.

As for `Nc1ccccc1C(=O)CCNc1ccc([N+](=O)[O-])cc1Br` [2-(2-aminobenzoyl)-N-2-bromo-4-nitro-phenylethylamine], in the experiment on NMDA-activated currents, the “% Inhibition Peak Current” value is recorded as 86.23% and the “% Inhibition Steady State Current” value was found to be 90.78%.

Turning to `O=[N+]([O-])c1ccccc1NCCc1c[nH]c2ccccc12` [N-(2-Nitrophenyl)-tryptamine], on GSK3β, the IC50 was determined as 9.9 µM and the “inhibiting activity” value was “significant inhibiting activity”. Also, in the experiment on MPTP-treated mice, the “reversal” value is reported as “significantly reversed the motor deficits”, the LOCOMOTION is 53%, the REARING worked out at 100% and the “TOTAL ACTIVITY” value came out at 90%. For the same compound, in the experiment with NMDA-activated currents, the “% Inhibition Peak Current” value was 90.93%, the “% Inhibition Steady State Current” value worked out at 66.83% and the “blocking activity” value was “significant blocking activity”.

Take `O=C(O)c1ccc(NCCc2c[nH]c3ccccc23)c([N+](=O)[O-])c1` [N-(4-Carboxy-2-nitrophenyl)-tryptamine]: in the experiment with NMDA-activated currents, the “% Inhibition Peak Current” value is recorded as 101.6% and the “% Inhibition Steady State Current” value is 92.84%.

For `CS(=O)(=O)c1ccc(NCCC(=O)c2ccccc2N)c([N+](=O)[O-])c1` [2-(2-aminobenzoyl)-N-2-nitro-4-methylsulfonyl-phenylethylamine], in the experiment with MPTP-treated mice, the “reversal” value is reported as “significantly reversed the motor deficits”, the LOCOMOTION is 54%, the REARING turned out to be 100% and the “TOTAL ACTIVITY” value was 72%.

As to `COc1ccc2[nH]cc(CCNc3ccc([N+](=O)[O-])cc3C#N)c2c1` [N-(2-cyano-4-nitrophenyl)-5-methoxytryptamine], in the experiment with NMDA-activated currents, the “% Inhibition Peak Current” value is listed as 96.21% and the “% Inhibition Steady State Current” value is reported as 88.21%.

With `Nc1ccccc1C(=O)CCNc1ccc(Br)cc1[N+](=O)[O-]` [2-(2-aminobenzoyl)-N-2-nitro-4-bromo-phenylethylamine], in the experiment with NMDA-activated currents, the “% Inhibition Peak Current” value is on record as 90.85% and the “% Inhibition Steady State Current” value is reported as 88.77%.

As to `COc1ccc2[nH]cc(CCNc3ccc([N+](=O)[O-])cc3Br)c2c1` [N-(2-bromo-4-nitrophenyl)-5-methoxytryptamine], in the experiment with NMDA-activated currents, the “% Inhibition Peak Current” value worked out at 91.53% and the “% Inhibition Steady State Current” value worked out at 86.57%.

With `COc1ccc2[nH]cc(CCNc3ccc(S(C)(=O)=O)cc3[N+](=O)[O-])c2c1` [N-(4-methylsulfonyl-2-nitrophenyl)-5-methoxytryptamine], in the experiment on MPTP-treated mice, the “reversal” value was “significantly reversed the motor deficits”, the LOCOMOTION was determined as 41%, the REARING came to 74% and the “TOTAL ACTIVITY” value is reported as 70%.

On to `O=[N+]([O-])c1cc(Br)ccc1NCCc1c[nH]c2ccccc12` [N-(2-nitro-4-bromophenyl)-tryptamine], for which, in the experiment with NMDA-activated currents, the “% Inhibition Peak Current” value is 95.8%, the “% Inhibition Steady State Current” value was 83% and the “blocking activity” value is “significant blocking activity”.

For `COc1ccc2[nH]cc(CCNc3ccc([N+](=O)[O-])cc3C(=O)O)c2c1` [N-(2-Carboxy-4-nitrophenyl)-5-methoxytryptamine], in the experiment on NMDA-activated currents, the “% Inhibition Peak Current” value was found to be 84% and the “% Inhibition Steady State Current” value is given as 93.6%.
